Reference: patent US20180214428A1, “3-(1H-INDOL-2-YL)-1H-PYRAZOLO[3,4-B]PYRIDINES AND THERAPEUTIC USES THEREOF” (Samumed, LLC, priority 2015, published 2018)

What was measured:
[1] = system: Wnt activity (Sp5-Luc reporter gene, SW480 colon carcinoma cells); test: Screening assay for Wnt activity: Sp5-Luc reporter gene assay in SW480 cells; type: cell-based, human; conditions: Homo sapiens, overnight incubation
Method in brief: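 SW480 cells stably transduced with a luciferase reporter driven by an Sp5 promoter of eight TCF/LEF sites were plated at 4,000 cells/well in 1% FBS medium. They were exposed overnight at 37° C to a 10-point 1:3 dilution series from 10 μM (0.1% DMSO). Luminescence was normalized to DMSO for four-parameter EC50, or percent inhibition at 10 μM.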

[2] = system: primary human mesenchymal stem cells (hMSCs); test: Induction of chondrogenesis in primary human mesenchymal stem cells; type: cell-based; conditions: Homo sapiens, Mesenchymal stem cells, 144 h, 6 days; for Emax: chondrogenic nodules, TGF-β3 (10 ng/mL) positive control, read-out: Max. Activity as % TGF-β3 activity; for EC50: concentration required to induce 50% levels of chondrogenesis vs TGF-β3, read-out: Conc (nM) of 50% TGF-β3 activity
Protocol: Representative compounds were screened using primary human mesenchymal stem cells (hMSCs) to determine their ability to induce chondrogenesis (process by which cartilage is developed).
Primary human mesenchymal stem cells (hMSCs) were purchased from Lonza (Walkersville, Md.) and expanded in Mesenchymal Stem Cell Growth Media (Lonza). Cells between passage 3 and 6 were used for the experiments.
Each compound was dissolved in DMSO as a 10 mM stock and used to prepare compound source plates. Serial dilution (1:3, 6-point dose-response curves from 2700 nM to 10 nM) and compound transfer was performed using the ECHO 550 (Labcyte, Sunnyvale, Calif.) into 96-well clear bottom assay plates (Greiner Bio-One) with appropriate DMSO backfill for a final DMSO concentration of 0.03%. hMSCs were plated at 20,000 cells/well in 250 μL/well Incomplete Chondrogenic Induction Medium (Lonza; DMEM, dexamethasone, ascorbate, insulin-transferrin-selenium [ITS supplement], gentamycin-amphotericin [GA-1000], sodium pyruvate, proline and L-glutamine). TGF-β3 (10 ng/mL) was used as a positive control for differentiation while negative control wells were treated with 75 nL DMSO for normalization and calculating EC50 values. Cells were incubated at 37° C. and 5% CO2 for 6 days. To image chondrogenic nodules, the cells were fixed using 4% formaldehyde (Electron Microscopy Sciences), and stained with 2 μg/mL Rhodamine B (Sigma-Aldrich) and 20 μM Nile Red (Sigma-Aldrich) [Johnson K., et. al, A Stem Cell-Based Approach to Cartilage Repair, Science, (2012). 336(6082), 717-721]. The nodules imaged (4 images per well at 4× magnification) by excitation at 531 nm and emission at 625 nm and quantified using the CellInsight CX5 (Thermo Scientific). Number of nodules in each well was normalized to the average of 3 DMSO treated wells on the same plate using Excel (Microsoft Inc.). The normalized averages (fold change over DMSO) of 3 replicate wells for each compound concentration were calculated. Due to solubility limitations of some of the compounds, curve fitting was incomplete leading to inaccurate EC50 determinations.
Using TGF-β3 as a positive control, the concentration of representative compounds required to induce 50% levels of chondrogenesis is reported. In addition, the maximum activity of each compound and the respective dose that each compound reached maximum chondrogenesis activity is reported.

SMILES	EC50 [1]	Emax [2]	EC50 [2]
CN(C)CCNc1cc(F)cc(-c2cccc3[nH]c(-c4n[nH]c5ncc(-c6cncc(N)c6)cc45)cc23)c1 [Compound 425, N^1-(3-(2-(5-(5-Aminopyridin-3-yl)-1H-pyrazolo[3,4-b]pyridin-3-yl)-1H-indol-4-yl)-5-fluorophenyl)-N^2,N^2-dimethylethane-1,2-diamine]	293 nM	101%	900 nM
Fc1ccc(-c2cccc3[nH]c(-c4n[nH]c5ncc(-c6cncc(CN7CCCC7)c6)cc45)cc23)cc1 [Compound 35, 3-(4-(4-Fluorophenyl)-1H-indol-2-yl)-5-(5-(pyrrolidin-1-ylmethyl)pyridin-3-yl)-1H-pyrazolo[3,4-b]pyridine]	2300 nM	160%	10 nM
Cc1ncc(-c2cnc3[nH]nc(-c4cc5ccccc5[nH]4)c3c2)n1C [Compound 655, 5-(1,2-Dimethyl-1H-imidazol-5-yl)-3-(1H-indol-2-yl)-1H-pyrazolo[3,4-b]pyridine]	3340 nM	47%	
Nc1cncc(-c2cnc3[nH]nc(-c4cc5c(-c6ccccn6)cccc5[nH]4)c3c2)c1 [Compound 121, 5-(3-(4-(Pyridin-2-yl)-1H-indol-2-yl)-1H-pyrazolo[3,4-b]pyridin-5-yl) pyridin-3-amine]	174 nM	117%	900 nM
c1ccc(-c2cccc3[nH]c(-c4n[nH]c5ncc(-c6cncc(CN7CCCC7)c6)cc45)cc23)nc1 [Compound 131, 3-(4-(Pyridin-2-yl)-1H-indol-2-yl)-5-(5-(pyrrolidin-1-ylmethyl)pyridin-3-yl)-1H-pyrazolo[3,4-b]pyridine]	4530 nM	161%	
